Laboratory results reported in PMC4843002, “Identification of pyrazolopyridazinones as PDEδ inhibitors” (Nature Communications, 2016).

Key:
GABA transaminase = biological target: T1, GABA transaminase (Rattus norvegicus, UniProt P50554); assay: Cerep enzyme and cell-based assays; type: biochemical; settings: read-out: % Inhibition of Control Values
T1 construct: Eurofins Pharma Discovery Services (CEREP diversity panel, outsourced assay)

[1] = mouse, in vivo
Method: (§10) Determination of pharmacokinetic properties in vivo
50% physiological saline / 40% water.
(§11) The regression equation of the calibration curve was used to calculate plasma concentrations. Pharmacokinetic parameters were calculated using the PKSolver
(§12) Animal experiments and care were conducted at Synovo GmbH (Tübingen, Germany) in accordance with the guidelines of institutional authorities and approved

CB1 (h) = biological target: T2, CB1 (h) (Homo sapiens, UniProt P21554); assay: Cerep binding, agonist radioligand; settings: read-out: % Inhibition of Control Specific Binding
T2 construct: purchased Eurofins Pharma Discovery Services (CEREP diversity panel)
T2 sequence (P21554 whole entry): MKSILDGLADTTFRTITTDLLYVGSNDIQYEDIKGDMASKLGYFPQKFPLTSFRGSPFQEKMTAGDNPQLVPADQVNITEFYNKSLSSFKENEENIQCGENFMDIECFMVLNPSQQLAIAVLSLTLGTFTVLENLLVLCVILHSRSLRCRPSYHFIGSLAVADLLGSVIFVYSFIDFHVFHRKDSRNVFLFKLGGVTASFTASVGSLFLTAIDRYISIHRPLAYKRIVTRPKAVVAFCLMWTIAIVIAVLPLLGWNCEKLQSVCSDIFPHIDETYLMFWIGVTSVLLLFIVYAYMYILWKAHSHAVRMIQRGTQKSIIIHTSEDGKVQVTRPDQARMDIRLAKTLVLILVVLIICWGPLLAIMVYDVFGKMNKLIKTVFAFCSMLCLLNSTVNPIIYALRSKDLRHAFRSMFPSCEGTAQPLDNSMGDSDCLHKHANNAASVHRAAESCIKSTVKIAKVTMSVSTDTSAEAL

B2 (h) = biological target: T3, B2 (h) (Homo sapiens, UniProt P30411); assay: Cerep binding, agonist radioligand; settings: read-out: % Inhibition of Control Specific Binding
T3 construct: purchased Eurofins Pharma Discovery Services (CEREP diversity panel)
T3 sequence (P30411 whole entry): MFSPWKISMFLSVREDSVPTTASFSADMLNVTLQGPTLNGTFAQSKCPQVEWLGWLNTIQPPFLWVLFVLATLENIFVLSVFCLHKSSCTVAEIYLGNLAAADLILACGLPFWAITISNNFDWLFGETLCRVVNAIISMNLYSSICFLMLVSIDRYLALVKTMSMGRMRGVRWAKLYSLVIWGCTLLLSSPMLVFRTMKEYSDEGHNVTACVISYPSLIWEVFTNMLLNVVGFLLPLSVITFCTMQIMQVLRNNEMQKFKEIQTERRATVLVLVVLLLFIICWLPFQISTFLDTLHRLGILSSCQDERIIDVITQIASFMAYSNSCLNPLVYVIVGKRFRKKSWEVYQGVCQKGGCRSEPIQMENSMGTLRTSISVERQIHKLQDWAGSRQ

Erk phosphorylation = assay: western blot, Erk phosphorylation in PANC-1
Method: To examine whether PDEδ inhibition by Deltarasin and Deltazinone 1 downregulates the signal transduction via these pathways, we examined the phosphorylation of extracellular signal regulated kinase (Erk) and S6 Ribosomal Protein (S6P) in the oncogenic KRas-dependent Panc-Tu-1 and KRas-independent PANC-1 cells. […] Cells were lysed with RIPA-buffer (20 mM Tris pH 7.5, 150 mM NaCl, 0.5 mM Na2 EDTA, 1 % sodium deoxycholate, 0.1% sodium dodecyl sulfate, 1% IGEPAL supplemented with Complete Mini EDTA-free protease inhibitor (Roche Applied Science) and 1% phosphatase inhibitor cocktail 2 and 3 (P5726 and P0044, Sigma Aldrich), scraped off after 5 min on ice and centrifuged at 14,000g for 20 min at 4 °C. SDS–polyacrylamide gel electrophoresis was carried out with 10–25 μg of whole-cell lysate from each sample. The gels were blotted onto polyvinylidene difluoride membrane (Millipore) and blocked for 1 h at room temperature. […] Blots were scanned on a LI-COR Odyssey imaging system.
Western blots were quantified using ImageJ. The background of the blots was subtracted by applying the rolling ball subtraction with a radius of 50 pixels. Afterwards the integrated intensity of the bands was measured.

[2] = biological target: T4, phosphatase 1B (h) (PTP1B) (Homo sapiens, UniProt P18031); assay: Cerep enzyme and cell-based assays; type: biochemical; settings: read-out: % Inhibition of Control Values
T4 construct: Eurofins Pharma Discovery Services (CEREP diversity panel, outsourced assay)

D1 (h) = biological target: T5, D1 (h) (Homo sapiens, UniProt P21728); assay: Cerep binding, antagonist radioligand; settings: read-out: % Inhibition of Control Specific Binding
T5 construct: purchased Eurofins Pharma Discovery Services (CEREP diversity panel)
T5 sequence (P21728 whole entry): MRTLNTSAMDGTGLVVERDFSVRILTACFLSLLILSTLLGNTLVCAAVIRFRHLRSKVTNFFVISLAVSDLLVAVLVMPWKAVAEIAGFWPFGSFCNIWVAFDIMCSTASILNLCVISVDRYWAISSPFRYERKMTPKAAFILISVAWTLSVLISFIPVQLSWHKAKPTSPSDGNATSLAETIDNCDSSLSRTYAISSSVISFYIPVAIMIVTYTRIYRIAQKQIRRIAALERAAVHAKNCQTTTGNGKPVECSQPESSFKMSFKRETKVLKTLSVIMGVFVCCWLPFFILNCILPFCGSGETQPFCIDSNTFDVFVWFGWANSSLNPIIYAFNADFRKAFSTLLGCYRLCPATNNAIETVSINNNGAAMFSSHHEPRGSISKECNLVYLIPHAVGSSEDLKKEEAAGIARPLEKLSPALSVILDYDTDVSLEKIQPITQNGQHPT

PDE1B (h) = biological target: T6, PDE1B (h) (Homo sapiens, UniProt Q01064); assay: Cerep enzyme and cell-based assays; type: biochemical; settings: read-out: % Inhibition of Control Values
T6 construct: purchased Eurofins Pharma Discovery Services (CEREP diversity panel)
T6 sequence (Q01064 whole entry): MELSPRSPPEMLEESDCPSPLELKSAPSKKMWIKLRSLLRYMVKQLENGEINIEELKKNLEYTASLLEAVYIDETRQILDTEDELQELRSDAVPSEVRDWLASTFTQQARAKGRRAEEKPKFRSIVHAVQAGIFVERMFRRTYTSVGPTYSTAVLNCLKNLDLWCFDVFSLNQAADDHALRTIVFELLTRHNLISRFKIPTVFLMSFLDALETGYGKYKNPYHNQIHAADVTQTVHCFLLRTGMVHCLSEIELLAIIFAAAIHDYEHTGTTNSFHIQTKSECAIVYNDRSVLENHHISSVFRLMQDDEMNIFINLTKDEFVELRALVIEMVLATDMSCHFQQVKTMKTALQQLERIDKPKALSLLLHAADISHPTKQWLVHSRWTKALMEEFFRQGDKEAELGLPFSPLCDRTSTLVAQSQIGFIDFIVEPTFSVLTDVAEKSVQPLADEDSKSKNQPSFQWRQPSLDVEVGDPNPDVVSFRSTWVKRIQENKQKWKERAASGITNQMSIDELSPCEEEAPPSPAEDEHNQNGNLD

V1a (h) = biological target: T7, V1a (h) (Homo sapiens, UniProt P37288); assay: Cerep binding, agonist radioligand; settings: read-out: % Inhibition of Control Specific Binding
T7 construct: purchased Eurofins Pharma Discovery Services (CEREP diversity panel)
T7 sequence (P37288 whole entry): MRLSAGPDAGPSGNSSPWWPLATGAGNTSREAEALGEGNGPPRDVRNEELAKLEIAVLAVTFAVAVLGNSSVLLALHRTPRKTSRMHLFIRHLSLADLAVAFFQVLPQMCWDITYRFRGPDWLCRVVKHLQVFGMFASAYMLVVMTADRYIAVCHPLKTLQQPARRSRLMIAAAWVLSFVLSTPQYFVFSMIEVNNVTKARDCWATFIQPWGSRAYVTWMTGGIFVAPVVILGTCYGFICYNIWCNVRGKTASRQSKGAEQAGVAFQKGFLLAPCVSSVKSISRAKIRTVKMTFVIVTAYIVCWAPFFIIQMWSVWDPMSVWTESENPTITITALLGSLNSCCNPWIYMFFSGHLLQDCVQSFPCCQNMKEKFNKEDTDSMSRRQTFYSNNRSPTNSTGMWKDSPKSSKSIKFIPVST

[3] = tested on: sigma (non-selective) (h); assay: Cerep binding, agonist radioligand; design: species or system human; settings: 5 µM
MIA PaCa-2 cells = assay: RTCA growth profile; type: cell-based, human; settings: MIA PaCa-2, doses higher than 3 μM
Method: (§1) RTCA was performed using 16-well E-plates on the Dual Plate xCELLigence instrument (Roche Applied Science, Indianapolis, IN). This system measures a dimensionless parameter called cell index, which evaluates the ionic environment at an electrode/solution interface and integrates information on cell number. Depending on the cell line 5 × 10^3–1 × 10^4 cells were plated in each well of the 16-well plates in 200 μl of cell culture medium. After seeding, cells were allowed to settle for 30 min at room temperature before being inserted into the xCELLigence instrument in a humidified incubator at 37 °C with 10% CO2. For RTCA experiments assaying cells stably expressing the inducible shRNA transgene, cells were seeded onto the E-plates in medium supplemented with 200 ng ml^−1 doxycycline. […] The small-molecule inhibitors were added at indicated time points and in the indicated concentrations. […] All assays were performed in duplicates. The cell index was normalized to 1 at the time point of drug administration.

Capan-1 cells = assay: RTCA growth profile; type: cell-based, human; settings: Capan-1, doses up to 24 μM
Method: as §1

PPARgamma (h) = biological target: T8, PPARgamma (h) (Homo sapiens, UniProt P37231); assay: Cerep binding, agonist radioligand; settings: read-out: % Inhibition of Control Specific Binding
T8 construct: purchased Eurofins Pharma Discovery Services (CEREP diversity panel)
T8 sequence (P37231 whole entry): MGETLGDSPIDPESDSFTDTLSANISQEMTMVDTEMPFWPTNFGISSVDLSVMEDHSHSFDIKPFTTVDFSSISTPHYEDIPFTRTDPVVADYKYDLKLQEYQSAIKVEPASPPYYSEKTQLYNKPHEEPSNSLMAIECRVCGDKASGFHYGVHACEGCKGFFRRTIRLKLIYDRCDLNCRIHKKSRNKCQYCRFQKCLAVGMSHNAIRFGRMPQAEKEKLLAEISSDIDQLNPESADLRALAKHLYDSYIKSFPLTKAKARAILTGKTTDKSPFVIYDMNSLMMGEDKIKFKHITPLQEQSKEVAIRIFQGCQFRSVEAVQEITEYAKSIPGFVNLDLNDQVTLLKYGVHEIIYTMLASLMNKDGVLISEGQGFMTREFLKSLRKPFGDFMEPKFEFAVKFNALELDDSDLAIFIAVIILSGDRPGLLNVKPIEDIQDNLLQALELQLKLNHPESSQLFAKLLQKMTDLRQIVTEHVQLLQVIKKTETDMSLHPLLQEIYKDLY

in vivo = settings: female, NMRI, mouse, 3 mg/kg
Method: as §10
50% physiological saline / 40% water.
as §11, §12

B1 (h) = biological target: T9, B1 (h) (Homo sapiens, UniProt P46663); assay: Cerep binding, agonist radioligand; settings: read-out: % Inhibition of Control Specific Binding
T9 construct: purchased Eurofins Pharma Discovery Services (CEREP diversity panel)
T9 sequence (P46663 whole entry): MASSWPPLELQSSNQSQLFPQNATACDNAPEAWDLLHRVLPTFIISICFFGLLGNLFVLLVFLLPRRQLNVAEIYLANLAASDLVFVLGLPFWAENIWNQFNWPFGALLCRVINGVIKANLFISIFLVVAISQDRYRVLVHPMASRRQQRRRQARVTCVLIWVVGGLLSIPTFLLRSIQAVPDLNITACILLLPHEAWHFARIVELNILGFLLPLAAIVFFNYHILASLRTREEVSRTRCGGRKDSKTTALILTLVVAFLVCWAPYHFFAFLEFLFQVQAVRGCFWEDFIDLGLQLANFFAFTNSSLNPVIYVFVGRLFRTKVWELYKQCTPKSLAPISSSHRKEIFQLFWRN

CysLT1 (LTD4) (h) = biological target: T10, CysLT1 (LTD4) (h) (Homo sapiens, UniProt Q9Y271); assay: Cerep binding, agonist radioligand; settings: read-out: % Inhibition of Control Specific Binding
T10 construct: purchased Eurofins Pharma Discovery Services (CEREP diversity panel)
T10 sequence (Q9Y271 whole entry): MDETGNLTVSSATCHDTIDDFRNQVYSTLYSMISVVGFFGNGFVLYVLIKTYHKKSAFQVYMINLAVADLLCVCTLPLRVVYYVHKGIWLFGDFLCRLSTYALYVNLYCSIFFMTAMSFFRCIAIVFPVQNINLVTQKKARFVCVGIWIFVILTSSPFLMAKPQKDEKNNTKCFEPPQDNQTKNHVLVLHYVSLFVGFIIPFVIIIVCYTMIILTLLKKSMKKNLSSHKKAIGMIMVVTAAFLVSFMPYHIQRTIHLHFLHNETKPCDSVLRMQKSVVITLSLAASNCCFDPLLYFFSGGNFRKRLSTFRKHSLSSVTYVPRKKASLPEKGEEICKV

CCK1 (CCKA) (h) = biological target: T11, CCK1 (CCKA) (h) (Homo sapiens, UniProt P32238); assay: Cerep binding, agonist radioligand; settings: read-out: % Inhibition of Control Specific Binding
T11 construct: purchased Eurofins Pharma Discovery Services (CEREP diversity panel)
T11 sequence (P32238 whole entry): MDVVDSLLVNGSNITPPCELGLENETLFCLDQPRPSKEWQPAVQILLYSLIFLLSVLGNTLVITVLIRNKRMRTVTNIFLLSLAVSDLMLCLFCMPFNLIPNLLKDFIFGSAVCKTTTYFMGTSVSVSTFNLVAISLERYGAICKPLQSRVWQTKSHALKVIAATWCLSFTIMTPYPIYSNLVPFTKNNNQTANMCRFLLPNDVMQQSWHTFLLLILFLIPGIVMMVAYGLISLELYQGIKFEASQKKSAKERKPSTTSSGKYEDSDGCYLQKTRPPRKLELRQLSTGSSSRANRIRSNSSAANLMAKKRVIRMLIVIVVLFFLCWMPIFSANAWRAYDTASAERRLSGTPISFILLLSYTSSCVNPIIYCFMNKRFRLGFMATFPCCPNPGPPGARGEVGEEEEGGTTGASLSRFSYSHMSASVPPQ

ATPase (Na+/K+) = assay: Cerep enzyme and cell-based assays; type: biochemical; settings: 5 µM
HDAC6 (h) = biological target: T12, HDAC6 (h) (Homo sapiens, UniProt Q9UBN7); assay: Cerep enzyme and cell-based assays; type: biochemical; settings: read-out: % Inhibition of Control Values
T12 construct: Eurofins Pharma Discovery Services (CEREP diversity panel, outsourced assay)

MAO-A (h) = biological target: T13, MAO-A (h) (Homo sapiens, UniProt P21397); assay: Cerep enzyme and cell-based assays; type: biochemical; settings: read-out: % Inhibition of Control Values
T13 construct: Eurofins Pharma Discovery Services (CEREP diversity panel, outsourced assay)

tyrosine hydroxylase = biological target: T14, tyrosine hydroxylase (Rattus norvegicus, UniProt P04177); assay: Cerep enzyme and cell-based assays; type: biochemical; settings: read-out: % Inhibition of Control Values
T14 construct: Eurofins Pharma Discovery Services (CEREP diversity panel, outsourced assay)

[4] = biological target: T15, MAO-B (h) recombinant enzyme (Homo sapiens, UniProt P27338); assay: Cerep enzyme and cell-based assays; type: biochemical; settings: read-out: % Inhibition of Control Values
T15 construct: Eurofins Pharma Discovery Services (CEREP diversity panel, outsourced assay)

HDAC11 (h) = biological target: T16, HDAC11 (h) (Homo sapiens, UniProt Q96DB2); assay: Cerep enzyme and cell-based assays; type: biochemical; settings: read-out: % Inhibition of Control Values
T16 construct: Eurofins Pharma Discovery Services (CEREP diversity panel, outsourced assay)

[5] = biological target: T17, sirtuin 1 (h) (inhibitor effect) (Homo sapiens, UniProt Q96EB6); assay: Cerep enzyme and cell-based assays; type: biochemical; settings: read-out: % Inhibition of Control Values
T17 construct: Eurofins Pharma Discovery Services (CEREP diversity panel, outsourced assay)
T17 sequence (Q96EB6 whole entry): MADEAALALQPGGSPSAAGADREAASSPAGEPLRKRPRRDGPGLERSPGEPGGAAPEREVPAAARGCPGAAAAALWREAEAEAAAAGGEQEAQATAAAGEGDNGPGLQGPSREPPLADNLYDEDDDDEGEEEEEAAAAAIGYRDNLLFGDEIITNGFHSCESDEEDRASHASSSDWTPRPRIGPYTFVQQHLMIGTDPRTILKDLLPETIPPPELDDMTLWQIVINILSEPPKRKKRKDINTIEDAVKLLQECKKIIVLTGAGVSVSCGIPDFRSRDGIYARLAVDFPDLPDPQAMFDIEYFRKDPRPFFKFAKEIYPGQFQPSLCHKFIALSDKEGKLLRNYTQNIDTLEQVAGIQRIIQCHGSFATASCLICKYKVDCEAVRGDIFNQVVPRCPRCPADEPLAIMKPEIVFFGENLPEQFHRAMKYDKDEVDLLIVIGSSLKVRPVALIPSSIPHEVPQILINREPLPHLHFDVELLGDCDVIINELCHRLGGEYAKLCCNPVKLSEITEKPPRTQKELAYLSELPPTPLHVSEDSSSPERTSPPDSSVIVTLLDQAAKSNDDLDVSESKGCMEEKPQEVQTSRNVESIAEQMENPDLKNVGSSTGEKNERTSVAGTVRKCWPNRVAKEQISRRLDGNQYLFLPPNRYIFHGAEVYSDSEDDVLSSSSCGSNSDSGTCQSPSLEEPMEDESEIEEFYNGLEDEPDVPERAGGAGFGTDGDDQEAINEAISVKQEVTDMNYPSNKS

acetylcholinesterase (h) = biological target: T18, acetylcholinesterase (h) (Homo sapiens, UniProt P22303); assay: Cerep enzyme and cell-based assays; type: biochemical; settings: read-out: % Inhibition of Control Values
T18 construct: Eurofins Pharma Discovery Services (CEREP diversity panel, outsourced assay)

PANC-1 = assay: CellTiter-Glo cell viability; type: cell-based, human; settings: PANC-1, CellTiter-Glo, n = 10
Method: (§2) Biochemical and Pharmacological Assays
(§3) Determination of cell viability using CellTiter-Glo®
(§4) Cells were seeded on day 1 at 500 cells per well to assure assay linearity and optimal signal intensity. After incubation for 24h in humidified incubator at 37°C, 5% CO2, compounds / DMSO were added at different concentrations. Cells were further incubated for 72 h at 37°C and 5% CO2. Cells treated with the compound vehicle (DMSO) […].
(§5) At day 5 the CellTiter-Glo® Reagent was prepared according to the instructions of the manufacturer (Promega): The Reagent was mixed 1:1 with cell culture medium.
(§6) Thereon, mixture and assay plates were equilibrated at room temperature for 20 min.
(§7) Equal volumes of the reagent-medium-mixture were added to the volume of culture medium present in each well. The plates were mixed at 200 rpm for 2 minutes on an orbital shaker and afterwards incubated at room temperature for 10 minutes.
(§8) Following incubation the luminescence was recorded on a Victor microplate reader (Perkin Elmer) using a 200 ms integration time. The data was analyzed with Excel using the XLFIT Plugin (dose response Fit 205) for IC50-determination.
(§9) As quality control the Z´ -factor was calculated from 16 positive and negative control values. Only assay results showing a Z´ -factor ≥ 0.5 were used for further analysis.

Panc-Tu-I = assay: CellTiter-Glo cell viability; type: cell-based, human
Method: as §2, §3, §4, §5, §6, §7, §8, §9

[6] = Homo sapiens, 72 h, read-out: IC50 anti-proliferative activity

With `Cc1ccc(-n2nc3c(=O)n(CCCC(=O)NCC(C)c4ccccc4)nc(C)c3c2C)cc1` (stereo not shown) [2k] the inhibition at 5 µM (GABA transaminase) was 0%, the metabolism in mice [1] was “rapidly metabolized” and the inhibition at 5 µM (CB1 (h)) was -12%. For the same molecule, the inhibition at 5 µM (B2 (h)) was -5%, the “EGF-induced Erk phosphorylation” value (Erk phosphorylation; PANC-1, 20 μM, longer incubation times (>3 h)) was “remained unaffected” and the “EGF-induced Erk phosphorylation” value (Erk phosphorylation; PANC-1, 1 h, 5 μM Deltarasin or 20 μM Deltazinone 1, 5 min EGF) was “did not significantly affect”. It also gave an inhibition at 5 µM [2] of 2%, an inhibition at 5 µM (D1 (h)) of 2% and an inhibition at 5 µM (PDE1B (h)) of 7%. The inhibition at 5 µM (V1a (h)) was -4%, the “% Inhibition of Control Specific Binding” value [3] was 3% and the “time after administration at which decreasing cell indices indicated cell death” value (MIA PaCa-2 cells) was about 40 h. The effect on growth (Capan-1 cells) was “strong growth inhibition but not cell death”, the inhibition at 5 µM (PPARgamma (h)) was -14% and the Tmax (in vivo; ip) was 4.8 min. The C0 (in vivo; iv) was 3380 ng/mL, the Vd (in vivo; iv) was 1.18 L/kg and the clearance (in vivo; iv) was 30.8 mL/min/kg. For the same molecule, the AUC(0-inf) (in vivo; iv, AUC 0-inf) was 1620 ng·h/mL, the AUC(0-t) (in vivo; iv, AUC 0-t) was 1620 ng·h/mL and the half-life (in vivo; iv, t1/2) was 21 min. It also gave an inhibition at 5 µM (B1 (h)) of -4%, an inhibition at 5 µM (CysLT1 (LTD4) (h)) of 0% and an inhibition at 5 µM (CCK1 (CCKA) (h)) of 22%. The “% Inhibition of Control Values” (ATPase (Na+/K+)) was 7%.
With `c1ccc(Cn2c(-c3ccc(OC[C@H](C4CCNCC4)n4c(-c5ccccc5)nc5ccccc54)cc3)nc3ccccc32)cc1` [Deltarasin, reference compound] the inhibition at 5 µM (CB1 (h)) was 7%, the inhibition at 5 µM (B2 (h)) was 10% and the inhibition at 5 µM (D1 (h)) was 99%. The inhibition at 5 µM (HDAC6 (h)) was 3%, the inhibition at 5 µM (PDE1B (h)) was 12% and the inhibition at 5 µM (V1a (h)) was 21%. For the same molecule, the inhibition at 5 µM (MAO-A (h)) was 1%, the inhibition at 5 µM (tyrosine hydroxylase) was 24% and the “% Inhibition of Control Specific Binding” value [3] was 57%. For the same molecule, the inhibition at 5 µM [4] was 7%, the inhibition at 5 µM (PPARgamma (h)) was 21% and the inhibition at 5 µM (HDAC11 (h)) was 37%. For the same molecule, the inhibition at 5 µM [5] was 4%, the inhibition at 5 µM (B1 (h)) was 3% and the inhibition at 5 µM (CysLT1 (LTD4) (h)) was -5%. It also gave an inhibition at 5 µM (CCK1 (CCKA) (h)) of 58%, an inhibition at 5 µM (acetylcholinesterase (h)) of 9% and an IC50 (PANC-1; [6]) of 6.67 µM. The Hill coefficient (PANC-1) was -10.8, the IC50 (Panc-Tu-I; [6]) was 4.83 µM and the Hill coefficient (Panc-Tu-I; Panc-Tu-I, CellTiter-Glo, n = 14) was -5.3.
